Source: US12295936B2, “Immunomodulating urea azalides” (Zoetis Services LLC, priority 2020, dated 2025)

Tests used:
[1] = tested on: IL-17 / IFN-γ producing CD4+ T helper cells; experiment: In vivo genomics challenge model: T helper subtypes and airway IL-17; set-up: species or system Holstein cattle
IL-8 = IL-8 levels in cattle (natural infection and M. hemolytica challenge studies); assay type: in vivo; details: over the course of a natural infection study; control animals increased 270%
Protocol: Intensive sample collection was conducted over a 96-hour period in a subset of cattle treated with Example H-91 (0.5 mg/kg) or H-11 (0.1 mg/kg) in the natural bovine infection studies. […] The compounds of the invention have shown an up-regulation of IL-36RA, which then binds to IL-36R limiting the pro-inflammatory response of IL-36. In addition, the IL-8 levels from one of the natural infection studies with Example H-91, increased 270% over the course of the study for control animals. In contrast, the IL-8 levels in animals dosed with Example H-91 decreased by about 15%.

P. multocida = experiment: Murine P. multocida intranasal challenge study with lung tissue RNA sequence analysis; assay type: in vivo, mice
Protocol: In one murine P. multocida intranasal challenge study, mice were administered tulathromycin (16 mg/kg; T02), M9 (32 mg/kg; T03), or ceftiofur (9 mg/kg; T04) by subcutaneous injection 18 hours after bacterial challenge (5×10^3 CFU/mouse) for lung tissue RNA sequence analysis. Survival at Day 7 was about 80%, 50%, and 90% for T02, T03, and T04, respectively, compared to placebo at 0%. Differential gene expression from total lung tissue RNA sequence analysis indicated at least 226 unique genes were up or down regulated (with significance) for T03. Output from ingenuity pathway analysis of these unique genes predicted major upstream regulators of the involved pathways. Data was analyzed based on the number of genes being modulated in the same direction that were associated with a given upstream regulator. An activation z-score of 2 or greater is considered significant and the direction change is indicated by +(activated) or − (inhibited). The top 5 pathways included: IL-9 signaling, glucocorticoid receptor signaling, prolactin signaling, JAK STAT signaling, and IL-17 signaling. The top 6 upstream regulators (activation z-score) included: lipopolysaccharide (−6.725), TNF (−4.669), IFNG (−5.759), IL-1β (−5.947), STAT1 (−2.787), and poly rl:rC-RNA (−5.289). Even though this study was run in the murine model, the top upstream regulators identified as being modulated by M9 include an almost ubiquitous overlap with the pathways identified in the natural disease study as being key mediators in BRD, and therefore is modulating highly relevant pathways in BRD pathobiology.

LCN2 = LCN2 (Bos taurus, UniProt A0AAA9TIZ6); experiment: Surface plasmon resonance (SPR) drug/target affinity; assay type: binding; details: biologically relevant pH
Description: (§1) In order to add further clarity to binding partner identification, surface plasma resonance (SPR) technology was used. […] These targets were unique to this drug class compared to gamithromycin, a macrolide antibiotic used in the treatment of BRD. Both targets fit the paradigm that the immunological mechanism of action is linked to the pathways that are both of key importance as being dysregulated in BRD and modulated by M9. LCN2 is expressed by neutrophils upon activation of toll-like receptors (TLRs) and is a component of the innate inflammatory response. […] Very little information exists to date on SLAMF9. It is a member of a family of signal adaptor proteins that is thought to lack signal transduction capabilities.
(§2) KD is the equilibrium dissociation constant that was used to present the drug/target affinity. The identified targets associated with drug were measured by surface plasmon resonance (SPR) to define the KD.

LPO = LPO (Bos taurus, UniProt P80025); experiment: as above; assay type: binding
Description: as §1, §2

NLRX1 = experiment: as above; assay type: binding
Description: as §1, §2

SLAMF9 = SLAMF9 (Bos taurus, UniProt E1BNF9); experiment: as above; assay type: binding; details: biologically relevant pH
Description: as §1, §2

[2] = M9 32 mg/kg (T03), ingenuity pathway analysis, − = inhibited

Sequence of SLAMF9 (E1BNF9 entry or part of it): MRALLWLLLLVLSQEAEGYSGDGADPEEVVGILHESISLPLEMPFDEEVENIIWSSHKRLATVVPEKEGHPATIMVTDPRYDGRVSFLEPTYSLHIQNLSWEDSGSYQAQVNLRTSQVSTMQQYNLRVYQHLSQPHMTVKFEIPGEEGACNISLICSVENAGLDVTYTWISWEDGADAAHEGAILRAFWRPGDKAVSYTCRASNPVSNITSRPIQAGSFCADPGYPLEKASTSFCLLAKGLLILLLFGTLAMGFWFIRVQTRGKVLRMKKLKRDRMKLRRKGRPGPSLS
Sequence of LCN2 (A0AAA9TIZ6 entry or part of it): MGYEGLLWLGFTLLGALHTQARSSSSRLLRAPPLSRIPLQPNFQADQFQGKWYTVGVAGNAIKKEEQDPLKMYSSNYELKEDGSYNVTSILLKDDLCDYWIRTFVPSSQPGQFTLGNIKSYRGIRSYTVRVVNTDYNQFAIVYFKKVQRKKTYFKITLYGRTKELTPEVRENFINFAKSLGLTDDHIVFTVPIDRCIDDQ

## CCCNC[C@]1(O)[C@H](C)O[C@@H](O[C@H]2[C@H](C)[C@@H](O[C@@H]3O[C@H](C)C[C@H](N(C)C(=O)N(C)c4ccccc4)[C@H]3O)[C@](C)(O)C[C@@H](C)CN[C@H](C)[C@@H](O)[C@](C)(O)[C@@H](CC)OC(=O)[C@@H]2C)C[C@@]1(C)OC [Example H-11, 1-((2S,3R,4S,6R)-2-(((2R,3S,4R,5R,8R,10R,11R,12S,13S,14R)-2-ethyl-3,4,10-trihydroxy-13-(((2R,4R,5S,6S)-5-hydroxy-4-methoxy-4,6-dimethyl-5-((propylamino)methyl)tetrahydro-2H-pyran-2-yl)oxy)-3,5,8,10,12,14-hexamethyl-15-oxo-1-oxa-6-azacyclopentadecan-11-yl)oxy)-3-hydroxy-6-methyltetrahydro-2H-pyran-4-yl)-1,3-dimethyl-3-phenylurea]
[1]; 0.1 mg/kg (T02), blood at 24 and 48 hours, FIG. 9
  Th1:Th17 ratio post-treatment: increase
[1]; animals challenged with M. haemolytica, FIG. 10
  IL-17 levels in the airway (BAL fluid, consolidated lung tissue): reduction

## CCCNC[C@]1(O)[C@H](C)O[C@@H](O[C@H]2[C@H](C)[C@@H](O[C@@H]3O[C@H](C)C[C@H](N(C)C(=O)Nc4ccccc4)[C@H]3O)[C@](C)(O)C[C@@H](C)CN[C@H](C)[C@@H](O)[C@](C)(O)[C@@H](CC)OC(=O)[C@@H]2C)C[C@@]1(C)OC [Example H-91, 1-((2S,3R,4S,6R)-2-(((2R,3S,4R,5R,8R,10R,11R,12S,13S,14R)-2-ethyl-3,4,10-trihydroxy-13-(((2R,4R,5S,6S)-5-hydroxy-4-methoxy-4,6-dimethyl-5-((propylamino)methyl)tetrahydro-2H-pyran-2-yl)oxy)-3,5,8,10,12,14-hexamethyl-15-oxo-1-oxa-6-azacyclopentadecan-11-yl)oxy)-3-hydroxy-6-methyltetrahydro-2H-pyran-4-yl)-1-methyl-3-phenylurea]
IL-8
  decrease of IL-8 levels: about 15%

## CCCNC[C@]1(O)[C@H](C)O[C@@H](O[C@H]2[C@H](C)[C@@H](O[C@@H]3O[C@H](C)C[C@H](NC)[C@H]3O)[C@](C)(O)C[C@@H](C)CN[C@H](C)[C@@H](O)[C@](C)(O)[C@@H](CC)OC(=O)[C@@H]2C)C[C@@]1(C)OC [Example M9, (2R,3S,4R,5R,8R,10R,11R,12S,13S,14R)-2-ethyl-3,4,10-trihydroxy-13-(((2R,4R,5S,6S)-5-hydroxy-4-methoxy-4,6-dimethyl-5-((propylamino)methyl)-tetrahydro-2H-pyran-2-yl)oxy)-11-(((2S,3R,4S,6R)-3-hydroxy-6-methyl-4-(methylamino)tetrahydro-2H-pyran-2-yl)oxy)-3,5,8,10,12,14-hexamethyl-1-oxa-6-azacyclopentadecan-15-one, reference compound]
P. multocida; M9 32 mg/kg (T03)
  unique genes up or down regulated (with significance), total lung tissue RNA sequence analysis: at least 226
P. multocida; [2]
  activation z-score, upstream regulator IFNG: −5.759
  activation z-score, upstream regulator IL-1β: −5.947
  activation z-score, upstream regulator STAT1: −2.787
  activation z-score, upstream regulator TNF: −4.669
  activation z-score, upstream regulator lipopolysaccharide: −6.725
  activation z-score, upstream regulator poly rl:rC-RNA: −5.289
P. multocida; subcutaneous 18 hours after challenge (5×10^3 CFU/mouse): tulathromycin 16 mg/kg, M9 32 mg/kg, ceftiofur 9 mg/kg, placebo 0%
  Survival at Day 7: ~50%
LCN2
  drug/target binding, LCN2: direct binding targets
LPO
  Interaction type: Indirect
NLRX1
  drug/target binding, NLRX1: Indirect
SLAMF9
  drug/target binding, SLAMF9: direct binding targets
